{"source": "ChEMBL document CHEMBL1148763", "about": "(J Med Chem, 2007)", "target": "T1, Dihydrofolate reductase (Bacillus anthracis, UniProt Q81R22)", "T1 sequence (Q81R22 whole entry)": "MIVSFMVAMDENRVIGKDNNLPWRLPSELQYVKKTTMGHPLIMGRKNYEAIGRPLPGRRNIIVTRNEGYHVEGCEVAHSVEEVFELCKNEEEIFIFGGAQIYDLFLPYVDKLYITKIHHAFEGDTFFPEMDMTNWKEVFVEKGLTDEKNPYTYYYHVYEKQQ", "experiment": "Inhibition of Bacillus anthracis DHFR", "note": "pIC50: −log10 of the molar value.", "data": [{"compound": "CN(c1ccc(C(=O)NC(CCC(=O)O)C(=O)O)cc1)c1cnc2nc(N)nc(N)c2n1", "note": "(stereo unspecified)", "values": [{"measurement": "pIC50", "value": 7.82}]}]}
